PMC9078123, “Ahmpatinin ^iBu, a new HIV-1 protease inhibitor, from Streptomyces sp. CPCC 202950” (RSC Advances, 2018)
Square brackets hold non-standard residues; d marks the D form. Peptide text beside a SMILES is read from it. * marks the point of attachment. X1 = COc1ccc(C[C@H](N*)[C@@H](O)CC(=O)O)cc1; Sta = CC(C)C[C@H](N)[C@@H](O)CC(=O)O; Isobutyryl = CC(C)C(=O)*; Propionyl = CCC(=O)*

Experiments:
[1] = biological target: T1, HIV-1 protease (Human immunodeficiency virus type 1 group M subtype B, UniProt P04585); experiment: Inhibition of HIV-1 protease activity; type: biochemical
T1 construct: HIV-1 PR is a 22 kDa dimeric aspartyl protease
Text: Analysis of the inhibition of HIV-1 protease activity

[2] = Cytotoxic activity assay, Hela; conditions: human, HeLa cervical cancer cells
Description: (§1) Cervical cancer (Hela), hepatocellular carcinoma (HepG2), and human osteosarcoma (U2OS) cell lines were obtained from the National Infrastructure of Cell Line Resource (Beijing, China).
(§2) This was measured using the previously described protocol.[34]

[3] = Cytotoxic activity assay, U2OS; conditions: human, U2OS osteosarcoma cells
Description: as §1, §2

[4] = Cytotoxic activity assay, HepG2; conditions: human, HepG2 hepatocellular carcinoma cells
Description: as §1, §2

| Structure (SMILES) | IC50 [1] [nM] | other results |
| --- | --- | --- |
| CC(C)C[C@H](NC(=O)[C@@H](NC(=O)[C@@H](NC(=O)C(C)C)C(C)C)C(C)C)[C@@H](O)CC(=O)N[C@@H](C)C(=O)O [Compound 2, ^iBu-L-Val^1-L-Val^2-(3S,4S)-Sta-L-Ala] (Isobutyryl-VV[Sta]A-OH) | 3190 |  |
| COc1cccc2c1C(=O)c1c(O)c3c(c(O)c1C2=O)C[C@@](O)(C(=O)CO)C[C@@H]3O[C@H]1C[C@H](N)[C@H](O)[C@H](C)O1 [doxorubicin] |  | IC50 [2]: 1420 nM; IC50 [3]: 2780 nM; IC50 [4]: 1560 nM |
| CCC(=O)N[C@H](C(=O)N[C@H](C(=O)N[C@@H](CC(C)C)[C@@H](O)CC(=O)N[C@@H](C)C(=O)N[C@@H](CC(C)C)[C@@H](O)CC(=O)OC)C(C)C)C(C)C [Compound 8, pepstatin Pr methyl ester] (Propionyl-VV[Sta]A[Sta]-OMe) | 139 |  |
| CC(C)CCCCC(=O)N[C@H]1CCN(CC(=O)O)C1=O [Compound 3, (−)-(S)-2-[3-(6-methylheptanamido)-2-oxopyrrolidin-1-yl]acetic acid] | > 10000 | inhibitory activity against HIV-1 protease (in words) ([1]; preliminary in vitro assay): inactive |
| COc1ccc(C[C@H](NC(=O)[C@H](C)NC(=O)C[C@H](O)[C@H](CC(C)C)NC(=O)[C@@H](NC(=O)[C@@H](NC(=O)C(C)C)C(C)C)C(C)C)[C@@H](O)CC(=O)O)cc1 [Compound 1, ^iBu-L-Val^1-L-Val^2-(3S,4S)-Sta-L-Ala-(3S,4S)-Ahmppa] (Isobutyryl-VV[Sta]A-X1) | 1.79 |  |
| CCC(=O)N[C@H](C(=O)N[C@H](C(=O)N[C@@H](CC(C)C)[C@@H](O)CC(=O)N[C@@H](C)C(=O)N[C@@H](CC(C)C)[C@@H](O)CC(=O)O)C(C)C)C(C)C [Compound 5, pepstatin Pr] (Propionyl-VV[Sta]A[Sta]-OH) | 22.3 |  |
| COC(=O)C[C@H](O)[C@H](CC(C)C)NC(=O)[C@H](C)NC(=O)C[C@H](O)[C@H](CC(C)C)NC(=O)[C@@H](NC(=O)[C@@H](NC(=O)C(C)C)C(C)C)C(C)C [Compound 9, pepsinostreptin methyl ester] (Isobutyryl-VV[Sta]A[Sta]-OMe) | 782 |  |
| CC(C)C[C@H](NC(=O)[C@H](C)NC(=O)C[C@H](O)[C@H](CC(C)C)NC(=O)[C@@H](NC(=O)[C@@H](NC(=O)C(C)C)C(C)C)C(C)C)[C@@H](O)CC(=O)O [Compound 6, pepsinostreptin] (Isobutyryl-VV[Sta]A[Sta]-OH) | 9.9 |  |
| COC(=O)C[C@H](O)[C@H](CC(C)C)NC(=O)[C@H](C)NC(=O)C[C@H](O)[C@H](CC(C)C)NC(=O)[C@@H](NC(=O)[C@@H](NC(C)=O)C(C)C)C(C)C [Compound 7, pepstatin Ac methyl ester] (Ac-VV[Sta]A[Sta]-OMe) | 203 |  |
